Experimental data as given in US4029807A (priority 1975, dated 1977).

How the values were obtained:
[1] = Clinical tolerability / adverse effects; details: view of the Applicant
[2] = test system: depressed patients; details: 10-50 mg intravenously, with a monoamino-oxydase inhibitor; cited from earlier work
[3] = Acute toxicity, intraperitoneal; format: in vivo, I.C.R. Swiss albino mice; details: mouse, in vivo, ip; mice of both sexes, intraperitoneal
Procedure: (§1) The studies of acute toxicity have been made with I.C.R. Swiss albino mice of both sexes. We express the toxicity date with the parameters of lethal dose 16 (LD16), lethal dose 50 (LD50) and lethal dose 84 (LD84), in mg/kg. of weight. The substance was administered intraperitoneally.

[4] = test system: I.C.R. Swiss albino mice; assay: Acute toxicity, intraperitoneal; format: in vivo
Procedure: as §1

[5] = test system: female mice; assay: Irwin's schema (behavioural symptomatology); format: in vivo; details: for symptomatology of our product observed with comparator: L-glutamic acid and L-5 hydroxytryptophan: separate administration at equimolecular doses
[6] = test system: cerebral serotonin; details: statement without data; cited from earlier work
[7] = clinical use, as described; cited from earlier work
[8] = test system: MAO; details: non-hydrazinic MAO inhibitor; cited from earlier work
[9] = test system: serotonin in the brain; details: dogs; cited from earlier work
[10] = cited from earlier work
[11] = test system: depressive patient; details: total dose 150 mg, cited from earlier work; for response of depressive symptoms: amitryptiline with anticonvulsivant therapy for two months, 5-hydroxytryptophan 5 days, L-DOPA previously
[12] = test system: antidepressive effects of the MAO inhibitors; details: in vivo; cited from earlier work
[13] = test system: uptake I (presynaptic membrane); details: presynaptic membrane level; cited from earlier work
[14] = test system: patients in depressive phase; details: 5 weeks, tablets 20, 50 and 100 mg three times a day; cited from earlier work
[15] = test system: patients affected by Parkinson's disease; details: human, in vivo; cited from earlier work
[16] = test system: serotonin in the brains of rats; details: administered at the same time as monoamino-oxydase inhibitors; cited from earlier work
[17] = Analgesic activity, chemical analgesia; format: in vivo
[18] = Analgesic activity, thermal analgesia (hot plate at 55° C.); format: in vivo
[19] = test system: responses to serotonin (rat's isolated uterus); assay: Antiserotoninic activity, rat's isolated uterus; details: 40 mcg/ml
[20] = test system: cerebral serotonin; assay: Cerebral serotonin level (inferred from symptomatology of the animals injected); format: in vivo; details: compared with sole administration of L-5-hydroxytryptophan
[21] = mice of both sexes, intraperitoneal

Compound: 5-hydroxytryptophan glutamate [the product obtained by this method]
- tolerability [1]: great tolerability

Compound: NC(Cc1c[nH]c2ccc(O)cc12)C(=O)O (racemic) [DL-5-OH-tryptophan]
- improvement of depression [2]: improvement of depression in one day

Compound: N[C@@H]1C[C@H]1c1ccccc1 (relative stereo) [Tranilcypromine]
- LD50 [3]: 11.3 mg/kg
- LD16 [4, 21]: 7.3 mg/kg
- LD84 [4, 21]: 18 mg/kg
- symptomatology of our product observed with comparator [5]: Neither is this symptomatology observed
- cerebral serotonin raising action compared with our product [6]: very inferior to our product
- adverse effects and secondary reactions [7]: great amount of adverse effects and secondary reactions
- inhibition of MAO [8]: powerful inhibitor of non-hydrazinic MAO

Compound: N[C@@H](Cc1c[nH]c2ccc(O)cc12)C(=O)O [5-hydroxytryptophan]
- raising of the level of serotonin in the brain [9]: 10 times
- tissue penetration ([10]; animals): rapidly penetrates most tissues
- conversion into serotonin ([10]; if there is decarboxylase): converted into serotonin
- time to disappearance of the depressive symptoms after treatment ([11]; 5 days): two
- response of depressive symptoms [11]: rapid improvement in the state of mind
- potentiation of the antidepressive effects of the MAO inhibitors [12]: potentiation of the antidepressive effects of the MAO inhibitors has been observed

Compound: CN(C)CCCN1c2ccccc2CCc2ccccc21 [Imipramine]
- LD16 [4, 21]: 33.3 mg/kg
- LD84 [4, 21]: 80 mg/kg
- incorporation blockage (uptake I) [13]: produces an incorporation blockage (uptake I) on the presynaptic membrane level

Compound: N[C@@H](Cc1c[nH]c2ccc(O)cc12)C(=O)O [L-5-hydroxytryptophan]
- symptomatology of our product observed with comparator [5]: not observed
- remission of depressive symptoms [14]: symptoms remitting so rapidly that even the patients themselves were impressed
- anti-tremor effect [15]: visible anti-tremor effect
- antidepressive action in Parkinson's disease patients [15]: intense antidepressive action with improvement of the affective field, of the psychomotor impulse and activation of personal initiative

Compound: N[C@@H](Cc1ccc(O)c(O)c1)C(=O)O [L-DOPA]
- response of depressive symptoms [11]: without obtaining any result

Compound: N[C@@H](CCC(=O)O)C(=O)O [L-glutamic acid]
- symptomatology of our product observed with comparator [5]: not observed

Compound: CN(C)CCC=C1c2ccccc2CCc2ccccc21 [amitryptiline]
- response of depressive symptoms [11]: did not produce any positive response

Compound: N[C@@H](Cc1c[nH]c2ccccc12)C(=O)O [tryptophan]
- increase in brain serotonin with monoamino-oxydase inhibitors [16]: the increase becomes higher
- potentiation of the antidepressive effects of the MAO inhibitors [12]: potentiation of the antidepressive effects of the MAO inhibitors has been observed

Compound: L-5 hydroxytryptophan monohydrate L-glutamate [Our product]
- times less toxic than imipramine ([4]; from the foregoing table): 6 times
- times less toxic than tranilcypromine ([4]; from the foregoing table): 300 times
- LD16 [4, 21]: 260.5 mg/kg
- LD50 [4, 21]: 323 mg/kg
- LD84 [4, 21]: 401.4 mg/kg
- duration of symptoms ([5]; 10 mg/kg orally): ≥ 120 min
- onset of symptoms after administration ([5]; 10 mg/kg orally): 15 min
- pharmacological activity compared with each ingredient separately ([5]; equimolecular doses): superior to that of each ingredient separately
- symptoms (Irwin's schema) ([5]; our product 10 mg/kg orally, female mice 28±2 g): increase in the state of alertness, a reaction to cleanliness and an increase in spontaneous activity, in addition to restlessness and irritability
- analgesic effect compared with dextropropoxyphene ([17]; 10 mg/kg oral vs dextropropoxyphene 50 mg/kg intraperitoneal, technique (chemical or thermal) not specified): same analgesic effect as dextropropoxyphene
- analgesic action, chemical analgesia ([17]; in vivo): significant analgesic action
- analgesic action, hot plate [18]: significant analgesic action
- inhibition of the responses to serotonin [19]: 36%
- raising of cerebral serotonin levels [20]: raises the levels of cerebral serotonin, in a greater way than the sole administration of L-5-hydroxytryptophan
- adverse effects and secondary reactions [7]: No interesting secondary reactions have yet been described
